ChEMBL document CHEMBL2380236, “Core refinement toward permeable β-secretase (BACE-1) inhibitors with low hERG activity” (J Med Chem, 2013)

Assays:
in vitro = settings: human, Caco-2, pH 7.4, Papp
physchem [1] = assay: physchem
physchem [2] = assay: physchem; remark: listed apart in the source
in vivo [3] = settings: C57BL/6, mouse, plasma, iv
in vivo [4] = settings: C57BL/6, mouse, brain and plasma, iv
in vivo [5] = settings: C57BL/6, mouse, brain, iv
in vivo [6] = settings: C57BL/6, mouse, brain and plasma, iv; remark: listed apart in the source
in vivo [7] = settings: C57BL/6, mouse, brain and plasma, po
in vivo [8] = settings: C57BL/6, mouse, plasma, po
in vivo [9] = settings: C57BL/6, mouse, brain, po
in vivo [10] = settings: C57BL/6, mouse, brain and plasma, po; remark: listed apart in the source

`CC1(c2cccc(-c3cccnc3)c2)N=C(N)c2ccccc2O1` (stereo not given) showed a Papp A→B at 10 µM (in vitro) of 17 ×10⁻⁶ cm/s, a pKa (physchem [1]) of 8.2 and a chromatographic logD (physchem [2]) of 1.8.
In the case of `CCC1(c2cccc(-c3cncnc3)c2)N=C(N)c2ccccc2O1` (stereo not given), the pKa (physchem [1]) is reported as 8.4 and the chromatographic logD (physchem [2]) is reported as 1.8.
For `CC1(c2cccc(-c3cncnc3)c2)N=C(N)c2c(F)cccc2O1` (stereo not given), the Papp A→B at 10 µM (in vitro) was 39 ×10⁻⁶ cm/s, the pKa (physchem [1]) was 6.9 and the chromatographic logD (physchem [2]) was 1.6.
Compound `CC1(c2cccc(-c3cccnc3)c2)N=C(N)c2c(F)cccc2O1` (stereo not given) has a Papp A→B at 10 µM (in vitro) of 23 ×10⁻⁶ cm/s, a pKa (physchem [1]) of 7 and a chromatographic logD (physchem [2]) of 2.3.
Work on `CC1(c2cccc(-c3cncnc3)c2)N=C(N)c2ccccc2S1` (stereo not given) yielded a Papp A→B at 10 µM (in vitro) of 39 ×10⁻⁶ cm/s, a pKa (physchem [1]) of 8.3 and a chromatographic logD (physchem [2]) of 1.7.
With `COc1cccc(-c2cccc(C3(C)N=C(N)CCO3)c2)c1` (stereo not given) the Papp A→B at 10 µM (in vitro) was 13 ×10⁻⁶ cm/s, the pKa (physchem [1]) was 9.3 and the chromatographic logD (physchem [2]) was 2.5.
For `CC1(c2cccc(-c3cccc(Cl)c3)c2)N=C(N)CCO1` (stereo not given), the Papp A→B at 10 µM (in vitro) was 2.1 ×10⁻⁶ cm/s, the pKa (physchem [1]) was 9.3 and the chromatographic logD (physchem [2]) was 3.3.
For `CC1(c2cccc(-c3cncnc3)c2)N=C(N)CCS1` (stereo not given), the fraction unbound at […] (in vivo [3]) was 0.89, the Papp A→B at 10 µM (in vitro) was 21 ×10⁻⁶ cm/s and the Kp uu at […] (in vivo [4]) was 0.27. The pKa (physchem [1]) was 9.1, the fraction unbound at […] (in vivo [5]) was 0.074 and the Kp at […] (in vivo [6]) was 1.4. The chromatographic logD (physchem [2]) was under 0.
Compound `COc1cccc(-c2cccc(C3(C)N=C(N)CCS3)c2)c1` (stereo not given) has a Papp A→B at 10 µM (in vitro) of 5.2 ×10⁻⁶ cm/s, a pKa (physchem [1]) of 9.3 and a chromatographic logD (physchem [2]) of 2.5.
`COc1cccc(-c2cccc(C3(C)COCC(N)=N3)c2)c1` (stereo not given) gave a Papp A→B at 10 µM (in vitro) of 20 ×10⁻⁶ cm/s, a pKa (physchem [1]) of 9.8 and a chromatographic logD (physchem [2]) of 2.1.
`COc1cccc(-c2cccc(C3(C)CSCC(N)=N3)c2)c1` (stereo not given) showed a pKa (physchem [1]) of 10.5.
Work on `COc1cccc(-c2cccc(C3(C)CCSC(N)=N3)c2)c1` (stereo not given) yielded a Papp A→B at 10 µM (in vitro) of 72 ×10⁻⁶ cm/s, a pKa (physchem [1]) of 7 and a Kp uu at […] (in vivo [7]) of 0.64. The fraction unbound at […] (in vivo [8]) was 0.07, the chromatographic logD (physchem [2]) was 2.5 and the fraction unbound at […] (in vivo [9]) was 0.005. The Kp at […] (in vivo [10]) was 8.9.
In the case of `COc1ccc(C2(c3cccc(-c4cncnc4)c3)N=C(N)c3nc(C)sc32)cc1` (stereo not given), the Papp A→B at 10 µM (in vitro) is reported as 18 ×10⁻⁶ cm/s, the pKa (physchem [1]) is reported as 8 and the Kp uu at […] (in vivo [7]) is reported as 0.04. The fraction unbound at […] (in vivo [8]) was 0.1, the chromatographic logD (physchem [2]) was 2 and the fraction unbound at […] (in vivo [9]) was 0.02. The Kp at […] (in vivo [10]) was 0.2.
`COc1ccc(C2(c3cccc(-c4cncnc4)c3)N=C(N)n3nc(C)cc32)cc1` (stereo not given) showed a Papp A→B at 10 µM (in vitro) of 30 ×10⁻⁶ cm/s, a pKa (physchem [1]) of 5.4 and a chromatographic logD (physchem [2]) of 2.3.
`COc1cccc(-c2cccc(C3(C)N=C(N)CS3)c2)c1` (stereo not given) showed a Papp A→B at 10 µM (in vitro) of 15 ×10⁻⁶ cm/s, a pKa (physchem [1]) of 6.9 and a chromatographic logD (physchem [2]) of 3.6.
Work on `COc1ccc(C2(c3cccc(-c4cccnc4)c3)N=C(N)CS2)cc1` (stereo not given) yielded a fraction unbound at […] (in vivo [3]) of 0.007, a Papp A→B at 10 µM (in vitro) of 19 ×10⁻⁶ cm/s and a Kp uu at […] (in vivo [4]) of 1.3. It also gave a pKa (physchem [1]) of 6.2, a fraction unbound at […] (in vivo [5]) of 0.01 and a Kp at […] (in vivo [6]) of 0.9. For the same compound, the chromatographic logD (physchem [2]) was 2.9.
For `COc1cccc(-c2cccc(C3(c4ccncc4)N=C(N)CS3)c2)c1` (stereo not given), the pKa (physchem [1]) was 5.4.
Compound `COc1cccc(-c2cccc(C3(C)N=C(N)CN3C(C)=O)c2)c1` (stereo not given) has a Papp A→B at 10 µM (in vitro) of 16 ×10⁻⁶ cm/s, a pKa (physchem [1]) of 6.5 and a chromatographic logD (physchem [2]) of 1.4.
With `COc1ccc(C2(c3cccc(-c4cncnc4)c3)CCC(N)=N2)cc1` (stereo not given) the Papp A→B at 10 µM (in vitro) was under 0.3 ×10⁻⁶ cm/s, the pKa (physchem [1]) was 10 and the chromatographic logD (physchem [2]) was 0.9.
With `CC1(c2cccc(-c3cncnc3)c2)N=C(N)c2ccccc2O1` (stereo not given) the Papp A→B at 10 µM (in vitro) was 31 ×10⁻⁶ cm/s, the pKa (physchem [1]) was 8.1 and the chromatographic logD (physchem [2]) was 1.2.
Work on `C[C@]1(c2cccc(-c3cncc(F)c3)c2)N=C(N)[C@@H]2CCCCN21` (relative stereo) yielded a chromatographic logD (physchem [2]) of 1.5.
Work on `C[C@]1(c2cccc(-c3cncc(F)c3)c2)N=C(N)[C@H]2CCCCN21` (relative stereo) yielded a pKa (physchem [1]) of 9.2 and a chromatographic logD (physchem [2]) of 2.
With `COc1ccc(C2(c3cccc(-c4cccnc4)c3)CC(OC)C(N)=N2)cc1` (stereo in doubt; form 4) the chromatographic logD (physchem [2]) was 1.8.
